Assay results published in patent publication US20240398817A1, “CARDIO- AND RENOSAFE ANTIDIABETIC THERAPY” (priority 2018, published 2024).
Entries after “also recorded” stand apart in the source; their conditions may differ.

System: patients with type 2 diabetes at high vascular risk
Experiment: Cardiovascular and Renal Outcomes Trial: linagliptin 5 mg once daily vs placebo on top of standard of care
Format: in vivo
Details: for Albuminuria progression: patients, %: of 2162 analysed; for Hospitalisation for heart failure vs placebo, in words: subgroup without insulin use at baseline
Method: The effect of linagliptin on cardiovascular risk in adult patients with type 2 diabetes mellitus and with increased CV risk evidenced by a history of established macrovascular or renal disease (e.g. as defined herein) was evaluated in a multi-center, multi-national, randomized, double-blind parallel group trial. The trial compared the risk of experiencing a major adverse cardiovascular event (MACE) between linagliptin and placebo when these were added to and used concomitantly with standard of care treatments for diabetes (HbA1c), cardiovascular risk factors and renal disease.
The primary endpoint in this trial was the time to first occurrence of three point (3P) MACE. A major adverse cardiac event was defined as a cardiovascular death or a nonfatal myocardial infarction (MI) or a nonfatal stroke. The statistical analysis plan tested for non-inferiority for the occurrence of (3P) MACE. […] The secondary endpoint was a renal composite, defined as renal death or sustained end stage renal disease or sustained decrease of 40% or more in eGFR.
Type 2 diabetes patient with insufficient glycemic control (naïve or pre-treated with any antidiabetic background medication, excluding treatment with GLP-1 receptor agonists, DPP-4inhibitors or SGLT-2 inhibitors if ≥consecutive 7 days, e.g. having HbA1c 6.5-10%), and high risk of cardiovascular events, e.g. defined by: • albuminuria (micro or macro) and previous macrovascular disease: e.g. defined according to Condition I as indicated below; • and/or • impaired renal function: e.g. as defined according to Condition II as indicated below;
Background and aims: People with type 2 diabetes (T2D) are at increased risk for hospitalization for heart failure (hHF), particularly in the setting of concomitant cardiovascular (CV) and/or kidney disease. […] Here we present analyses of HF outcomes with the DPP-4 inhibitor linagliptin (LINA) vs. placebo (PBO) from a Cardiovascular and Renal Outcomes Trial assessing cardiovascular safety and renal microvascular outcome in patients with type 2 diabetes at high vascular risk, a large CV outcomes trial that enrolled participants with T2D at high risk for hHF due to concomitant CV and/or chronic kidney disease. Materials and methods: People with T2D and concomitant CV and/or kidney disease were randomized to receive LINA 5 mg, or PBO once daily (1:1), on top of standard of care. All hHF, CV outcomes, and deaths were centrally adjudicated, with individual and composite HF-related outcomes analyses comparing LINA vs. placebo. Investigator-reported HF-related adverse events, whether or not confirmed by adjudication, were also analyzed. A Cox proportional hazards model adjusting for region and history of HF was used for analyses of first events. Recurrent hHF events were analyzed using a negative binomial model.
Methods: The present Cardiovascular and Renal Outcomes Trial randomized people with T2D and i) concomitant CV disease with UACR >30 mg/g or ii) prevalent CKD (i.e. GFR <45 ml/min/1.73m2 and/or UACR >200 mg/g) to receive the DPP-4 inhibitor linagliptin (5 mg) or placebo once daily in a double-blind fashion. The primary CV endpoint was 3P-MACE, with a key secondary kidney endpoint (adjudicated ESKD, renal death, or sustained ≥40% decrease in eGFR from baseline) and other renal outcomes (including albuminuria and eGFR slope) also assessed. Subgroups were assessed by baseline kidney function (eGFR ≥/<45 ml/min/1.73m2and eGFR ≥/<30, 45 or 60 ml/min/1.73m2).
Adults with type 2 diabetes, HbA1c 6.5-10.0% inclusive, and high CV risk were eligible for inclusion. […] Macrovascular disease eligibility criteria was based on documented and confirmed history of myocardial infarction, coronary artery disease, stroke, carotid artery disease, or peripheral artery disease. Participants with end-stage kidney disease (ESKD), defined as eGFR <15 or requiring maintenance dialysis, were excluded.

## CC#CCn1c(N2CCC[C@@H](N)C2)nc2c1c(=O)n(Cc1nc(C)c3ccccc3n1)c(=O)n2C [Linagliptin, 1-[(4-methyl-quinazolin-2-yl)methyl]-3-methyl-7-(2-butyn-1-yl)-8-(3-(R)-amino-piperidin-1-yl)-xanthine]
In vivo
  Hospitalization for unstable angina: rate/1000 patient-years: 5.5 per 1000 patient years
  Hypersensitivity reactions, all AEs: %: 3.3%
  Hypersensitivity reactions, all AEs: N: 114
  Investigator reported HF events: HR vs placebo: 0.87
  Investigator reported HF events: events: 243
  Investigator reported hypoglycemia: %: 29.7%
  Investigator reported hypoglycemia: N: 1036
  New initiation of loop diuretics or hHF: HR vs placebo: 0.95
  New initiation of loop diuretics or hHF: participants: 330/2530
  New introduction of loop diuretics: HR vs placebo: 0.94
  New introduction of loop diuretics: participants: 318/2530
  Non-cardiovascular death: %: (3.2) %
  Non-cardiovascular death: hazard ratio vs placebo: 1.02
  Non-cardiovascular death: no.: 112
  Non-cardiovascular death: rate/1000 patient-years: 14.3 per 1000 patient years
  Non-fatal myocardial infarction: %: (4.5) %
  Non-fatal myocardial infarction: hazard ratio vs placebo: 1.15
  Non-fatal myocardial infarction: no.: 156
  Non-fatal myocardial infarction: rate/1000 patient-years: 20.6 per 1000 patient years
  Non-fatal stroke: %: (1.9) %
  Non-fatal stroke: hazard ratio vs placebo: 0.88
  Non-fatal stroke: no.: 65
  Non-fatal stroke: rate/1000 patient-years: 8.5 per 1000 patient years
  Pancreatic cancer: %: 0.3%
  Pancreatic cancer: N: 11
  Participants with ≥2 hHF events: %: 1.7%
  Participants with ≥2 hHF events: n: 60
  Pemphigoid (bullous pemphigoid): %: 0.2%
  Pemphigoid (bullous pemphigoid): N: 7
  Reduction of risk of albuminuria progression compared to placebo: about 14%
  Reduction of risk of microvascular renal and/or eye complications compared to placebo: about 14%
  Renal death, sustained ESKD, or sustained decrease of 50% or more in eGFR from baseline: hazard ratio vs placebo: 0.98
  Risk of HHF regardless of baseline renal function, in words: did not affect the risk of HHF
  Risk of albuminuria progression vs placebo, in words: significantly reduced
  Risk of hospitalization for heart failure, in words: no increase in the risk
  Serious adverse events: %: 37.0%
  Serious adverse events: N: 1293
  Skin lesions: %: 0.1%
  Skin lesions: N: 5
  Stent thrombosis, hospitalisation for peripheral vascularisation, retinopathy-related endpoints vs placebo, in words: no significant difference
  Sustained decrease of 30% or more in eGFR with eGFR <60; and renal death, sustained ESRD or CV death vs placebo, in words: no significant difference
  Time to first event of investigator reported events or adjudicated hHF: HR vs placebo: 0.92
  Time to first event of investigator reported events or adjudicated hHF: events: 305
  eGFR changes over time and transition in CKD status vs placebo, in words: no clinically meaningful differences
  eGFR slope (MDRD): between-group difference vs placebo, estimate ± SE: −0.175 ± 0.151 /year
  eGFR-slope, in words: unaffected
  hHF or all-cause mortality: HR vs placebo: 0.95
  hHF or all-cause mortality: events: 499
In vivo, listed as linagliptin
  4-point MACE: %: 13.3%
  Acute pancreatitis, adjudication confirmed: N: 9
  Albuminuria progression: hazard ratio (95% CI) vs placebo: 0.86
  Albuminuria progression: rate/100 patient-years: 21.4 per 100 patient-years
  Hospitalization for heart failure or cardiovascular death: %: 11.6%
  Skin lesions: %: 0.2%
Median follow up 2.2 years
  Risk of major adverse cardiovascular events (3P-MACE) vs placebo, in words: non-inferior to placebo
  Risk of renal outcome events vs placebo, in words: did not increase the risk
Median follow up 2.2 years, listed as linagliptin
  Risk of major adverse cardiovascular events (3P-MACE) vs placebo, in words: did not increase the risk
N = 3494
  Any adverse events: N: 2697
N = 6740 both groups
  eGFR slope (MDRD) from baseline to last value on treatment/year, estimate ± SE: −2.459 ± 0.106 /year
Negative binomial model
  hHF events (first+recurrent): rate ratio vs placebo: 0.94
  Albuminuria progression: patients, %: (35.3) %
Listed as linagliptin
  Albuminuria progression: patients, %: 35.3%
  Hospitalisation for heart failure vs placebo, in words: favouring linagliptin in patients without insulin; also recorded: Statistically significant lower risk of hHF
Of n = 3494
  Contributing to composite microvascular outcome: patients with albuminuria progression, %: 21.3%
Patients analysed 2162 (n = 4291 both groups)
  Albuminuria progression: number of patients: 763
Patients taking sulfonylurea at baseline
  Rate of hypoglycemia compared to placebo, in words: numerically higher rate
Patients using insulin at baseline
  Incidence of severe hypoglycaemia: 4.4%
Patients using sulfonylurea at baseline
  Incidence of severe hypoglycaemia: 2.0%
Patients without insulin use at baseline
  Time to onset of intensification or initiation of insulin vs placebo, in words: later
Recurrent events analysis
  Cumulative number of hHF events (first+recurrent): 326
Study end
  Patients who achieved glycaemic control at the end of the study irrespective of antidiabetic medication: %: 29.0%
  Patients who achieved glycaemic control at the end of the study irrespective of antidiabetic medication: n: 1012
Study end visit
  Proportion achieving glycaemic control at study end without additional or increased antidiabetic medication vs placebo, in words: significantly greater
Subgroup baseline SBP <140 mmHg
  Risk of hHF vs placebo, in words: statistically lower risk of hHF
Subgroup enrolled from North America or Asia, listed as LINA
  Risk of hHF vs placebo, in words: nominally significant reductions
Subgroup enrolled from North America or Asia, listed as linagliptin
  Risk of hHF vs placebo, in words: Statistically significant lower risk of hHF
Listed as LINA
  Hospitalisation for heart failure vs placebo, in words: nominally significant reduction
Tertiary endpoints
  4P-MACE, CV death, all-cause mortality, and MI-related endpoints vs placebo, in words: no significant differences
  Fatal and non-fatal stroke and transient ischaemic attack vs placebo, in words: no significant differences
  hHF; CV death or hHF; all-cause mortality or hHF; heart failure AEs vs placebo, in words: no significant differences
Treated population
  Severe hypoglycemic event (requiring assistance): %: 3.0%
  Severe hypoglycemic event (requiring assistance): N: 106
Up to Week 132
  UACR vs placebo, in words: statistically significant and clinically meaningful reduction
Week 36
  UACR: difference at week 36 (gMean ratio of relative change for linagliptin versus placebo): 0.87
Week 84
  UACR: difference at week 84 (gMean ratio of relative change for linagliptin versus placebo): 0.88
